ChEMBL document CHEMBL3352305, “Podoverine A--a novel microtubule destabilizing natural product from the Podophyllum species” (Bioorg Med Chem, 2014)
Active and inactive are the calls of the source. No cut-off for these calls is given here.

Columns and labels:
HeLa [1] = experiment: Cytotoxicity against human HeLa cells assessed as inhibition of cell viability after 24 hrs by WST1 assay; assay type: functional, cell-based
[2] = Cell cycle arrest in human PC3 cells assessed as 2N stage DNA at 5 uM for 20 hrs by PI staining/FACS analysis (reference value: 42 no unit); assay type: functional, cell-based; settings: PC-3
[3] = Cell cycle arrest in human PC3 cells assessed as 2N stage DNA at 1 uM for 20 hrs by PI staining/FACS analysis (reference value: 42 no unit); assay type: functional, cell-based; settings: PC-3
Tubulin = experiment: (§1) Displacement of BODIPY-FL-vinblastine from tubulin (unknown origin); assay type: protein-complex assay, Homo sapiens
Tubulin (Homo sapiens) [4] = biological target: T1, Tubulin (Homo sapiens) (UniProt P68371+Q9H4B7+P0DPH7+P68366+Q13509+Q71U36+P04350+Q3ZCM7+P07437+P68363+Q9BQE3+Q6PEY2+Q13885+Q9BVA1+Q9BUF5); experiment: as §1; assay type: protein-complex assay
[5] = Cell cycle arrest in human PC3 cells assessed as >4N stage DNA at 1 uM for 20 hrs by PI staining/FACS analysis (Rvb =23 no unit); assay type: functional, cell-based; settings: PC-3
MCF7 [6] = experiment: Cell cycle arrest in human MCF7 cells assessed as >4N stage DNA at 5 uM for 20 hrs by PI staining/FACS analysis (Rvb =23.8 no unit); assay type: functional
BSC-1 [7] = experiment: Mitotic arrest in African green monkey BSC1 cells assessed as accumulation of round cells with intense stained tubulin and DNA structures at 3 uM for 20 hrs by FITC/TRITC staining; assay type: functional, cell-based; settings: Chlorocebus aethiops
HeLa [8] = experiment: Mitotic arrest in human HeLa cells assessed as cells devoid of mitotic spindles at 3 uM for 20 hrs by FITC/TRITC staining; assay type: functional, cell-based
HeLa [9] = experiment: Cell cycle arrest in human HeLa cells assessed as 4N stage DNA at 5 uM for 20 hrs by PI staining/FACS analysis (reference value: 24.8 no unit); assay type: functional
HeLa [10] = experiment: Mitotic arrest in human HeLa cells assessed as structure at 3 uM for 60 mins and measured after 20 hrs of washout and applied 3 uM after washout by FITC staining; assay type: functional, cell-based
[11] = Cell cycle arrest in human PC3 cells assessed as <2N stage DNA at 1 uM for 20 hrs by PI staining/FACS analysis (reference value: 0.59 no unit); assay type: functional, cell-based; settings: PC-3
HeLa [12] = experiment: Cell cycle arrest in human HeLa cells assessed as 4N stage DNA at 1 uM for 20 hrs by PI staining/FACS analysis (reference value: 24.8 no unit); assay type: functional
BSC-1 [13] = experiment: Inhibition of repolymerization of microtubule in cold treated African green monkey BSC1 cells at 5 uM for 20 hrs by DAPI staining; assay type: cell-based; settings: Chlorocebus aethiops
MCF7 [14] = experiment: Cell cycle arrest in human MCF7 cells assessed as 2N stage DNA at 5 uM for 20 hrs by PI staining/FACS analysis (reference value: 31.6 no unit); assay type: functional
Tubulin (Homo sapiens) [15] = biological target: T1, Tubulin (Homo sapiens); experiment: Displacement of colchicine from tubulin (unknown origin) by FITC staining; assay type: protein-complex assay
[16] = Cell cycle arrest in human PC3 cells assessed as 4N stage DNA at 5 uM for 20 hrs by PI staining/FACS analysis (Rvb =34.4 no unit); assay type: functional, cell-based; settings: PC-3
HeLa [17] = experiment: Cell cycle arrest in human HeLa cells assessed as >4N stage DNA at 1 uM for 20 hrs by PI staining/FACS analysis (reference value: 14.2 no unit); assay type: functional
MCF7 [18] = experiment: Cell cycle arrest in human MCF7 cells assessed as <2N stage DNA at 1 uM for 20 hrs by PI staining/FACS analysis (reference value: 0.39 no unit); assay type: functional
HeLa [19] = experiment: Cell cycle arrest in human HeLa cells assessed as <2N stage DNA at 1 uM for 20 hrs by PI staining/FACS analysis (reference value: 2.19 no unit); assay type: functional
Tubulin (Sus scrofa) = Tubulin (Sus scrofa) (UniProt P02554+P02550); experiment: Inhibition of porcine brain tubulin polymerization at 50 uM by turbidity assay
HeLa [20] = experiment: Cell cycle arrest in human HeLa cells assessed as <2N stage DNA at 5 uM for 20 hrs by PI staining/FACS analysis (reference value: 2.19 no unit); assay type: functional
MCF7 [21] = experiment: Cell cycle arrest in human MCF7 cells assessed as 2N stage DNA at 1 uM for 20 hrs by PI staining/FACS analysis (reference value: 31.6 no unit); assay type: functional
MCF7 [22] = experiment: Cell cycle arrest in human MCF7 cells assessed as >4N stage DNA at 1 uM for 20 hrs by PI staining/FACS analysis (Rvb =23.8 no unit); assay type: functional
[23] = Cell cycle arrest in human PC3 cells assessed as >4N stage DNA at 5 uM for 20 hrs by PI staining/FACS analysis (Rvb =23 no unit); assay type: functional, cell-based; settings: PC-3
MCF7 [24] = experiment: Cell cycle arrest in human MCF7 cells assessed as 4N stage DNA at 1 uM for 20 hrs by PI staining/FACS analysis (Rvb =40.8 no unit); assay type: functional
HeLa [25] = experiment: Mitotic arrest in human HeLa cells assessed as increase in accumulation at G2/M phase at 5 uM for 24 hrs by PI staining/FACS analysis; assay type: functional, cell-based
HeLa [26] = experiment: Mitotic arrest in human HeLa cells assessed as structure at 3 uM for 60 mins and measured after 20 hrs of washout by FITC staining; assay type: functional, cell-based
HeLa [27] = experiment: Cell cycle arrest in human HeLa cells assessed as >4N stage DNA at 5 uM for 20 hrs by PI staining/FACS analysis (reference value: 14.2 no unit); assay type: functional
MCF7 [28] = experiment: Cell cycle arrest in human MCF7 cells assessed as <2N stage DNA at 5 uM for 20 hrs by PI staining/FACS analysis (reference value: 0.39 no unit); assay type: functional
HeLa [29] = experiment: Mitotic arrest in human HeLa cells assessed as accumulation of round cells with intense stained tubulin and DNA structures at 3 uM for 20 hrs by FITC/TRITC staining; assay type: functional, cell-based
HeLa [30] = experiment: Cell cycle arrest in human HeLa cells assessed as 2N stage DNA at 5 uM for 20 hrs by PI staining/FACS analysis (reference value: 58 no unit); assay type: functional
[31] = Cell cycle arrest in human PC3 cells assessed as <2N stage DNA at 5 uM for 20 hrs by PI staining/FACS analysis (reference value: 0.59 no unit); assay type: functional, cell-based; settings: PC-3
MCF7 [32] = experiment: Cell cycle arrest in human MCF7 cells assessed as 4N stage DNA at 5 uM for 20 hrs by PI staining/FACS analysis (Rvb =40.8 no unit); assay type: functional
HeLa [33] = experiment: Cell cycle arrest in human HeLa cells assessed as 2N stage DNA at 1 uM for 20 hrs by PI staining/FACS analysis (reference value: 58 no unit); assay type: functional
[34] = Cell cycle arrest in human PC3 cells assessed as 4N stage DNA at 1 uM for 20 hrs by PI staining/FACS analysis (Rvb =34.4 no unit); assay type: functional, cell-based; settings: PC-3
HeLa [35] = experiment: Mitotic arrest in human HeLa cells assessed as cells with condensed chromosomes not aligned to metaphase plate at 3 uM for 20 hrs by FITC/TRITC staining; assay type: functional, cell-based
HeLa [36] = experiment: Mitotic arrest in human HeLa cells assessed as increase in accumulation at G2/M phase at 1 uM for 24 hrs by PI staining/FACS analysis; assay type: functional, cell-based

Chain of Tubulin (Sus scrofa) (P02550 whole entry, looked up): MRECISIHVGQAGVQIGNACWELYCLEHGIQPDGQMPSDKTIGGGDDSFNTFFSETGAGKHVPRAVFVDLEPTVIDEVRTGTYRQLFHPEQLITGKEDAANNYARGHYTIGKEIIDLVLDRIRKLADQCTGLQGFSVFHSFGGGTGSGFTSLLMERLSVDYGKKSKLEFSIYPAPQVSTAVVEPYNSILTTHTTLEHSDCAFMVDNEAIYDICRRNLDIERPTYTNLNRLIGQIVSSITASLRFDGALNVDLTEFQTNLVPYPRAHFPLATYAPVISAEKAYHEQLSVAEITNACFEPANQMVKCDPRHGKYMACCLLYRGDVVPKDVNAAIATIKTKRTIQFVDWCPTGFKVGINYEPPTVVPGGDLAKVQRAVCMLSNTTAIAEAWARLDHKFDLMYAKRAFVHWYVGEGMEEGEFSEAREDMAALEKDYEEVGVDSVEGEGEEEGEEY
Chain of Tubulin (Sus scrofa) (P02554 whole entry, looked up): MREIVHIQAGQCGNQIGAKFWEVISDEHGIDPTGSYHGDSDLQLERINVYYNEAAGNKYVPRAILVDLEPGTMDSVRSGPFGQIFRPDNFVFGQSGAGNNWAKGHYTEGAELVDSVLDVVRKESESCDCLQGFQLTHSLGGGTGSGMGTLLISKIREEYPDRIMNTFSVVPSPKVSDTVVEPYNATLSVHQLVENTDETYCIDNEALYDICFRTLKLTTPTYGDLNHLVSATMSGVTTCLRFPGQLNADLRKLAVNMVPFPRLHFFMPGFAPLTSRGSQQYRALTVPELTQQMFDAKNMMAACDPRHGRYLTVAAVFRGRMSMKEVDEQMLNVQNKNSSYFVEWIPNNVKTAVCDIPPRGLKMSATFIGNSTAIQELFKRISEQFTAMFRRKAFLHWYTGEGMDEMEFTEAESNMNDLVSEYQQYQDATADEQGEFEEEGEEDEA

With COc1c(-c2ccc(O)c(O)c2CC=C(C)C)oc2cc(O)cc(O)c2c1=O the IC50 (HeLa [1]) was 790 nM, the inhibition (HeLa [1]) was “Dose-dependent effect” and the Flu intensity [2] was 9.24. For the same molecule, the Flu intensity [3] was 27.6, the EC50 (Tubulin) was 14.7 µM and the inhibition (Tubulin (Homo sapiens) [4]) was “Dose-dependent effect”. For the same molecule, the Flu intensity [5] was 26.5, the Flu intensity (MCF7 [6]) was 27 and the Activity (BSC-1 [7]) was “Active”. The Activity (HeLa [8]) was “Active”, the Flu intensity (HeLa [9]) was 58.2 and the Activity (HeLa [10]) was “Active”. For the same molecule, the Flu intensity [11] was 2.23, the Flu intensity (HeLa [12]) was 40.2 and the inhibition (BSC-1 [13]) was “Active”. The Flu intensity (MCF7 [14]) was 9.57, the Activity (Tubulin (Homo sapiens) [15]) was “inactive” and the Flu intensity [16] was 47.5. The Flu intensity (HeLa [17]) was 13.8, the Flu intensity (MCF7 [18]) was 1.07 and the Flu intensity (HeLa [19]) was 5.6. The inhibition (Tubulin (Sus scrofa)) was “Active”, the Flu intensity (HeLa [20]) was 9.84 and the Flu intensity (MCF7 [21]) was 32. The Flu intensity (MCF7 [22]) was 29.6, the Flu intensity [23] was 30.8 and the Flu intensity (MCF7 [24]) was 36.3. The Activity (HeLa [25]) was “Active”, the Activity (HeLa [26]) was “inactive” and the Flu intensity (HeLa [27]) was 21.8. For the same molecule, the Flu intensity (MCF7 [28]) was 2, the Activity (HeLa [29]) was “Active” and the Flu intensity (HeLa [30]) was 9.6. For the same molecule, the Flu intensity [31] was 12.6, the Flu intensity (MCF7 [32]) was 61.5 and the Flu intensity (HeLa [33]) was 40.4. The Flu intensity [34] was 42 and the Activity (HeLa [35]) was “Active”.
Work on COC(=O)Nc1nc2cc(C(=O)c3cccs3)ccc2[nH]1 [NOCODAZOLE] yielded a Flu intensity [3] of 7.64, a Flu intensity [5] of 29.4 and a Flu intensity [11] of 10.7. It also gave a Flu intensity (HeLa [12]) of 64.7, a Flu intensity (HeLa [17]) of 16.9 and a Flu intensity (MCF7 [18]) of 0.72. The Flu intensity (HeLa [19]) was 9.75, the Activity (HeLa [36]) was “Active” and the Flu intensity (MCF7 [21]) was 9.16. The Flu intensity (MCF7 [22]) was 30.7, the Flu intensity (MCF7 [24]) was 57.5 and the Flu intensity (HeLa [33]) was 8.61. It also gave a Flu intensity [34] of 51.7.
